Experiment [1] deals with human colon cancer cell line HCT116. The experiment can be described thus: alamarBlue viability assay, HCT116. The class given is cell-based. The settings on record: HCT-116, 72 hours, dose required to inhibit cell growth by 50%. On the procedure: The human colon cancer cell line HCT116 and the human breast cancer cell line MCF-7 were from the American Type Culture Collection (ATCC; CCL-247 and HTB-22, respectively).
The HCT116 cell line was maintained in DMEM GlutaMAX (Invitrogen) supplemented with 10% fetal calf serum and the MCF7 cell line was maintained in RPMI1640 GlutaMAX (Invitrogen) containing 1 mM sodium piruvate and 10% fetal calf serum.
Cells were grown in a humidified incubator at 37° C. in 5% CO2.
Cells were plated in 96-well plates at a density of 6000 cells/well in 100 μl medium 24 h before addition of drugs. […] To do so, a drugs-dilution plate at twice the screening concentrations was prepared. 72 hours later, alamarBlue (Biosource, Invitrogen) viability assay was performed following manufacturer's protocol. In brief, alamarBlue diluted in media was added to cells to have a 5% solution. Cells were incubated at 37° C., 3 hours and at room temperature, 30 min. Cells with no drug and, cells with no drug and lysed with triton X-100 were used as controls. Fluorescence was monitored at 530 nm excitation and 590 nm emission wavelengths. Results were quantified using Infinite F200 Microplate Reader (Tecan Group, Ltd.). EC50 were calculated as the dose of drugs required to inhibit cell growth by 50%, with Origin 7.0 computer program.

The target in the next experiment is T1, human recombinant HDAC 2 (Homo sapiens, UniProt Q92769).
T1 construct: purchased BPS Bioscience 50002
Description: HDAC inhibition assay (Fluor de Lys), HDAC2. In kind it is biochemical. The settings on record: inhibitor-protein incubation 2 hours, reaction 1 h 30 min, 37° C. On the procedure: All assays were carried out in the assay buffer: 50 mM Tris/Cl, pH 8.0, 137 mM NaCl, 2.7 mM KCl, 1 mM MgCl2).
Reactions were carried out in a 96-wells microplate (Corning 96 well Flat Bottom Non-binding surface (black) ref. 3651).
Potential inhibitors were added after five fold serial dilutions in DMSO. Final DMSO concentration in the assay microplate was kept at 2%.
Afterwards, human recombinant HDAC1, HDAC 2 or HDAC 8 were added up to […] respectively in assay buffer. When necessary, the mixture was incubated at room temperature prior the addition of substrate.
Total reaction volume of 50 μl. Human recombinant HDACs could be acquired from commercial sources (HDAC1: ref. #50001, BPS Bioscience™; HDAC 2: ref. #50002, BPS Bioscience™; HDAC 8: ref. #50008, BPS Bioscience™).
Reactions were stopped with 50 μl Developer (KI-105 Fluor de Lys™, BIOMOL®) with 2 μmol/L trichostatin A (TSA, final concentration 1 μmol/L). After 20 minutes at 37° C., fluorescence (excitation 360 nm, emission 460 nm) was measured using an Infinite F200 fluorimeter (Tecan). Background was determined in reactions using substrate in the absence of enzyme.
IC50 values are defined as the compound concentration at which the deacetylase activity is 50% inhibited. In these assays the following grading was used (I: IC50≦10 μM; II: 10 μM<IC50≦100 μM; III: 100 μM<IC50≦1 mM) The results obtained are summarized in Table 4.

Structures can show the parent of a compound that is named as a salt.

T1 sequence (Q92769 whole entry): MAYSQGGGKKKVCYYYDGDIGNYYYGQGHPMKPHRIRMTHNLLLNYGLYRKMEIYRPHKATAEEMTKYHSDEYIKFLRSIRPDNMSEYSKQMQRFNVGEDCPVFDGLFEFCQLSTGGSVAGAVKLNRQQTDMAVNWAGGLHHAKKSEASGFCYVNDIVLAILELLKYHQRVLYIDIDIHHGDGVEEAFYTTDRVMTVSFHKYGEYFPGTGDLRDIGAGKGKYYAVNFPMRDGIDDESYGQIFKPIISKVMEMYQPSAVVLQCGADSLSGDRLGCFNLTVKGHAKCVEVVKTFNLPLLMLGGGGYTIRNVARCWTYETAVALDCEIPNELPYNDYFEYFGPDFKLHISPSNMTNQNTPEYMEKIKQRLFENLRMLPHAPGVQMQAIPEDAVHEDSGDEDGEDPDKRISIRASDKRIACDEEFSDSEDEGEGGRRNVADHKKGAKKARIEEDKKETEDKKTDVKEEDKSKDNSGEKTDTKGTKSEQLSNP

`O=C(O)C(CCCc1ccccc1)CCc1ccc(-c2ccco2)cc1` (centres unmarked) [Example 73, 2-{2-[4′-(2-Furyl)phenyl]ethyl}-5-phenylpentanoic acid] yielded an EC50 in experiment [1] of 48.6 µM. The half-maximal inhibitory concentration (IC50) at human recombinant HDAC 2 lay within 100 to 1000 µM.

In turn, `O=C(O)C(CCCc1ccccc1)CCc1ccc(-c2ccoc2)cc1` (centres unmarked) [Example 74, 2-{2-[4′-(3-Furyl)phenyl]ethyl}-5-phenylpentanoic acid] yielded a 50% effective concentration (EC50) in experiment [1] of 94.5 µM. Moreover, the IC50 at human recombinant HDAC 2 lay within 10 to 100 µM. Consider `O=C(O)C(CCCCc1ccccc1)CCc1ccccc1` (centres unmarked) [Example 14, 6-Phenyl-2-(2-phenylethyl)hexanoic acid], for which the EC50 in experiment [1] was 256 µM. Further, the 50% inhibitory concentration (IC50) at human recombinant HDAC 2 was 10 to 100 µM. Take `CC(=O)OCOC(=O)C(CCCc1cccc(S(=O)(=O)Nc2ccc(C)cc2)c1)CCc1ccccc1` (centres unmarked) [Example 18]: the EC50 in experiment [1] was 95 µM.

Consider `O=C(O)C(CCCc1ccccc1)CCC1CNc2ccccc21` (mixture of isomers) [Example 53, 2-[2-(2,3-Dihydro-1H-indol-3-yl)ethyl]-5-phenylpentanoic acid], for which the IC50 at human recombinant HDAC 2 fell in the range of 10 to 100 µM. For `Nc1ccc(CCC(CCCc2ccccc2)C(=O)O)cc1` (centres unmarked) [Example 32, 2-[2-(4-Aminophenyl)ethyl]-5-phenylpentanoic acid], the IC50 at human recombinant HDAC 2 was in the range of 100 to 1000 µM.

In experiment [1], `O=C(O)C(CCCc1cccc2ccccc12)CCc1ccc(-c2cccs2)cc1` (centres unmarked) [Example 79, 5-(1-Naphthyl)-2-[2-(4′-thien-2-ylphenyl)ethyl]-pentanoic acid] came in with an EC50 of 36.7 µM. For the same compound, the IC50 at human recombinant HDAC 2 lay in the range of 100 to 1000 µM. With `O=C(O)C(CCCc1ccccc1)CCc1ccc(Oc2ccccc2)cc1` (centres unmarked) [Example 65, 2-{2-[4-Phenoxyphenyl]ethyl}-5-phenylpentanoic acid], the IC50 at human recombinant HDAC 2 fell in the range of 100 to 1000 µM. Consider `O=C(O)C(CCCc1ccccc1)CCc1ccc(OCc2cccnc2)cc1` (centres unmarked) [Example 59, 2-{2-[4-(Pyridin-3-ylmethoxy)phenyl]ethyl}-5-phenyl pentanoic acid], for which the IC50 at human recombinant HDAC 2 was in the range of 10 to 100 µM.

With `O=C(O)C(CCCc1ccccc1)CCc1ccc(OCc2ccncc2)cc1` (centres unmarked) [Example 60, 2-{2-[4-(Pyridin-4-ylmethoxy)phenyl]ethyl}-5-phenylpentanoic acid], the IC50 at human recombinant HDAC 2 was 100 to 1000 µM. `O=C(O)C(CCCc1ccccc1)CCc1ccc(-c2ccsc2)cc1` (centres unmarked) [Example 75, 2-{2-[4′-(3-Thienyl)phenyl]ethyl}-5-phenylpentanoic acid] showed an EC50 in experiment [1] of 184 µM. The IC50 on human recombinant HDAC 2 lay in the range of 100 to 1000 µM. Turning to `O=C(O)C(CCCc1cccc2ccccc12)CCc1ccc(-c2cccnc2)cc1` (centres unmarked) [Example 80, 5-(1-Naphthyl)-2-[2-(4′-pyridin-3-ylphenyl)ethyl]-pentanoic acid], in experiment [1], the EC50 worked out at 107 µM. Moreover, the IC50 at human recombinant HDAC 2 lay within 10 to 100 µM. As for `O=C(O)C(CCCc1ccccc1)CCc1ccc(Oc2ccc(C(F)(F)F)cc2)cc1` (centres unmarked) [Example 66, 2-{2-[4-(4-Trifluoromethylphenoxy)phenyl]ethyl}-5-phenyl pentanoic acid], the 50% inhibitory concentration (IC50) at human recombinant HDAC 2 was 100 to 1000 µM. For `CNS(=O)(=O)c1cccc(CCCC(CCc2ccccc2)C(=O)OC)c1` (centres unmarked) [Example 42, Methyl 5-(3-[(methylamino)sulfonyl]phenyl)-2-(2-phenylethyl)pentanoate], the half-maximal effective concentration (EC50) in experiment [1] was 56 µM. In turn, `Cc1ccc(NS(=O)(=O)c2cccc(CCCC(CCCc3ccccc3)C(=O)O)c2)cc1` (centres unmarked) [Example 44, 5-[3-(4-methylanilinosulfonyl)phenyl]-2-(3-phenylpropyl)pentanoic acid] came in with an EC50 in experiment [1] of 95 µM. For the same compound, the IC50 at human recombinant HDAC 2 lay in the range of 10 to 100 µM.

As for `O=C(O)C(CCCc1ccccc1)CCc1ccc(-c2ccncc2)cc1` (centres unmarked) [Example 76, 2-{2-[(4′-Pyridinyl)phenyl-4-yl]ethyl}-5-phenylpentanoic acid hydrochloride], the EC50 in experiment [1] is 166 µM. Further, the IC50 on human recombinant HDAC 2 is 10 to 100 µM.

Turning to `N#Cc1ccc(Oc2ccc(CCC(CCCc3ccccc3)C(=O)O)cc2)cc1` (centres unmarked) [Example 63, 2-{2-[4-(4-cyanophenoxy)phenyl]ethyl}-5-phenylpentanoic acid], a half-maximal response in experiment [1] (EC50) required 88 µM. The half-maximal inhibitory concentration (IC50) at human recombinant HDAC 2 was in the range of 10 to 100 µM.

In the case of `O=C(O)C(CCCc1ccccc1)CCc1ccc(NCc2ccccc2)cc1` (centres unmarked) [Example 33, 2-[2-(4-(Benzylamino)phenyl)ethyl]-5-phenylpentanoic acid], the EC50 in experiment [1] came out at 71.4 µM. The IC50 on human recombinant HDAC 2 was in the range of 10 to 100 µM.

For the compound `O=C(O)C(CCCc1ccccc1)SCc1ccccc1` (centres unmarked) [Example 70, Sodium 2-(benzylthio)-5-phenylpentanoate], in experiment [1], a half-maximal response (EC50) required 825 µM. Further, the IC50 at human recombinant HDAC 2 is 100 to 1000 µM. `O=C(O)C(CCCc1ccccc1)CCc1ccc(OCc2ccccn2)cc1` (centres unmarked) [Example 58, 2-{2-[4-(Pyridin-2-ylmethoxy)phenyl]ethyl}-5-phenylpentanoic acid] registered an EC50 in experiment [1] of 160 µM. Besides, the IC50 on human recombinant HDAC 2 was 10 to 100 µM. `N#Cc1cccc(Oc2ccc(CCC(CCCc3ccccc3)C(=O)O)cc2)c1` (centres unmarked) [Example 62, 2-{2-[4-(3-cyanophenoxy)phenyl]ethyl}-5-phenylpentanoic acid]: in experiment [1], the response was half-maximal at 155 µM (EC50). The IC50 on human recombinant HDAC 2 fell in the range of 10 to 100 µM. For `COc1ccc(NS(=O)(=O)c2cccc(CCCC(CCc3ccccc3)C(=O)OCOC(C)=O)c2)cc1OC` (centres unmarked) [Example 17, (Acetyloxy)methyl 5-(3-{[(3,4-dimethoxyphenyl)amino]sulfonyl}phenyl)-2-(2-phenylethyl)pentanoate], the EC50 in experiment [1] came out at 62 µM. In experiment [1], `CC(=O)OCOC(=O)C(CCCc1ccccc1)CCc1ccccc1` (centres unmarked) [Example 16, (Acetyloxy)methyl 5-phenyl-2-(2-phenylethyl)pentanoate] gave an EC50 of 267 µM. With `O=C(O)C(CCCc1ccccc1)CCc1ccc(Oc2ccc(F)cc2)cc1` (centres unmarked) [Example 64, 2-{2-[4-(4-Fluorophenoxy)phenyl]ethyl}-5-phenylpentanoic acid], the IC50 on human recombinant HDAC 2 is 100 to 1000 µM.

Take `O=C(O)C(CCCc1ccccc1)CCc1ccc(-c2ccccc2)cc1` (centres unmarked) [Example 72, 2-[2-(1,1′-Biphenyl-4-yl)ethyl]-5-phenylpentanoic acid]: the EC50 in experiment [1] worked out at 88.3 µM. Besides, the half-maximal inhibitory concentration (IC50) on human recombinant HDAC 2 is 10 to 100 µM.

`CCc1ccc(CCC(CCCCc2ccccc2)C(=O)O)cc1` (centres unmarked) [Example 48, 2-[2-(4-Ethylphenyl)ethyl]-6-phenylhexanoic acid] gave an EC50 in experiment [1] of 112 µM. Further, at human recombinant HDAC 2, the IC50 was in the range of 10 to 100 µM. On the same counts, the results for `CCc1ccc(CCC(CCCc2cccc3ccccc23)C(=O)O)cc1` (centres unmarked) [Example 50, 5-(1-Naphthyl)-2-[2-(4-ethylphenyl)ethyl]-pentanoic acid] are 103 µM and 100 to 1000 µM. On to `CC(=O)OCOC(=O)C(CCc1ccccc1)Cc1ccccc1` (centres unmarked) [Example 15, (Acetyloxy)methyl 2-benzyl-4-phenylbutanoate], for which the EC50 in experiment [1] was 85 µM. In experiment [1], `CC(=O)OCOC(=O)C(CCCc1ccccc1)CCc1ccc(OCc2ccccc2)cc1` (centres unmarked) [Example 56, (Acetyloxy)methyl 2-[2-(4-benzyloxyphenyl)ethyl]-5-phenyl pentanoate] yielded an EC50 of 56 µM.

For the compound `COc1ccc(Oc2ccc(CCC(CCCc3ccccc3)C(=O)O)cc2)cc1` (centres unmarked) [Example 67, 2-{2-[4-(4-Methoxyphenoxy)phenyl]ethyl}-5-phenylpentanoic acid], the IC50 on human recombinant HDAC 2 is 10 to 100 µM. On to `Cc1ccc(S(=O)(=O)Nc2cccc(CCCC(CCc3ccccc3)C(=O)O)c2)cc1` (centres unmarked) [Example 25, 5-(3′-{[(4-Methylphenyl)sulfonyl]amino}phenyl)-2-(2-phenylethyl)pentanoic acid], for which, in experiment [1], the EC50 is 121 µM. In addition, at human recombinant HDAC 2, the concentration for half-maximal inhibition (IC50) was 10 to 100 µM. Turning to `O=C(O)C(CCCc1ccccc1)CCc1ccc(O)cc1` (centres unmarked) [Example 54, 2-[2-(4-hydroxyphenyl)ethyl]-5-phenylpentanoic acid], at human recombinant HDAC 2, the IC50 lay in the range of 100 to 1000 µM.

In experiment [1], `O=C(O)C(CCCc1ccccc1)CCc1ccc(-c2cccs2)cc1` (centres unmarked) [Example 78, 5-Phenyl-2-[2-(4′-thien-2-ylphenyl)ethyl]pentanoic acid] registered an EC50 of 87.2 µM. Also, at human recombinant HDAC 2, the IC50 lay within 10 to 100 µM. As for `O=C(O)C(CCc1ccccc1)SCCc1ccccc1` (centres unmarked) [Example 68, 4-Phenyl-2-[(2-phenylethyl)thio]butanoic acid], the IC50 at human recombinant HDAC 2 was 100 to 1000 µM. In the case of `CCc1ccc(CCC(CCCc2ccc(S(=O)(=O)Nc3ccccc3)cc2)C(=O)OC)cc1` (centres unmarked) [Example 47, Methyl 5-[4-(anilinosulfonyl)phenyl]-2-[2-(4-ethylphenyl)ethyl]pentanoate], the EC50 in experiment [1] is 23 µM.
